For the series the following is noted: Liquid, Closed cell (Static) method.

The text below walks through data of the NIST ThermoML archive (doi:10.1016/j.jct.2016.08.031).

Numbers after ± are expanded uncertainties.

Usually vapor or sublimation pressure stands for the equilibrium pressure above the liquid or solid. For `CC(C)C` [2-methylpropane], the “vapor or sublimation pressure” value reads like this: (303.15 K) 404.5 ± 1.2 kPa; (313.15 K) 530.9 ± 1.3 kPa; (323.15 K) 684.6 ± 1.4 kPa; (333.15 K) 869 ± 1.7 kPa; (343.15 K) 1087.4 ± 1.9 kPa; (353.15 K) 1343.4 ± 2.3 kPa.
Regarding `F/C=C\C(F)(F)F` [(Z)-1,3,3,3-tetrafluoro-1-propene], the “vapor or sublimation pressure” value came to 210.6 ± 1.1 kPa (303.15 K); 290.7 ± 1.1 kPa (313.15 K); 391.8 ± 1.2 kPa (323.15 K); 517.4 ± 1.3 kPa (333.15 K); 671.3 ± 1.4 kPa (343.15 K); 859.2 ± 1.6 kPa (353.15 K).
